From the NIST ThermoML archive (doi:10.1021/je200616t)

Assay: xn = mol fraction of the nth substance listed
Conditions: 101 kPa, Liquid, MP522 conductivity instrument

CCCC[n+]1ccccc1.O=S(=O)([N-]S(=O)(=O)C(F)(F)F)C(F)(F)F [1-butylpyridinium bis[(trifluoromethyl)sulfonyl]imide] + CC1COC(=O)O1
electrical conductivity [S/m]
Conditions	283.15 K	293.15 K	298.15 K	303.15 K	313.15 K
x1 = 0.0282	0.356	0.444	0.489	0.538	0.635
x1 = 0.0553	0.536	0.672	0.745	0.821	0.976
x1 = 0.0934	0.66	0.84	0.933	1.03	1.24
x1 = 0.1235	0.701	0.896	1	1.12	1.34
x1 = 0.1897	0.686	0.902	1.02	1.15	1.4
x1 = 0.269	0.607	0.821	0.938	1.07	1.34
x1 = 0.3709	0.493	0.692	0.802	0.927	1.19
x1 = 0.4666	0.4	0.58	0.681	0.798	1.04
x1 = 0.5668	0.323	0.483	0.575	0.679	0.906
x1 = 0.6944	0.248	0.386	0.467	0.561	0.764
x1 = 0.7943	0.208	0.33	0.403	0.489	0.681
x1 = 0.8591	0.188	0.3	0.367	0.448	0.628
x1 = 0.9208	0.17	0.275	0.338	0.415	0.587
x1 = 0.9715	0.157	0.256	0.317	0.392	0.556
x1 = 1	0.15	0.246	0.307	0.378	0.54

CCCC[n+]1ccccc1.O=S(=O)([N-]S(=O)(=O)C(F)(F)F)C(F)(F)F [1-butylpyridinium bis[(trifluoromethyl)sulfonyl]imide] + CC#N
electrical conductivity [S/m]
Conditions	283.15 K	293.15 K	298.15 K	303.15 K	313.15 K
x1 = 0.0379	3.17	3.52	3.68	3.85	4.19
x1 = 0.0652	3.38	3.77	3.96	4.16	4.55
x1 = 0.1114	3.28	3.72	3.94	4.18	4.64
x1 = 0.1566	2.84	3.3	3.54	3.78	4.26
x1 = 0.217	2.22	2.67	2.89	3.13	3.6
x1 = 0.3137	1.46	1.83	2.02	2.23	2.66
x1 = 0.4004	1.01	1.31	1.48	1.66	2.04
x1 = 0.513	0.653	0.897	1.03	1.18	1.5
x1 = 0.6732	0.371	0.546	0.647	0.762	1.01
x1 = 0.7658	0.282	0.427	0.512	0.611	0.83
x1 = 0.8473	0.223	0.348	0.424	0.511	0.708
x1 = 0.8897	0.2	0.316	0.388	0.47	0.657
x1 = 0.9649	0.167	0.261	0.33	0.405	0.576
x1 = 1	0.151	0.246	0.307	0.377	0.542
